How the values were obtained:
Per2:luc U2OS cells = assay: Real-time monitoring of circadian oscillation in lumicycle, Per2:luc U2OS cells; type: cell-based, human
Description: Cell culture, drug treatment and Real-Time Monitoring of Circadian Oscillations: Per2-Luc reporter U2OS cells (D15) and Bmal1-Luc reporter U2OS cells (C26) cells were kept in DMEM medium (Gibco), supplemented with 10% FBS (Gibco) and 1% penicillin streptomycin mixture (Gibco). For Circadian Oscillation monitored with lumicycle (Actimetrics), cells were seeded at the density of 10^6 per 3.5 cm dish (Z688851-30EA). The medium was changed into XM medium (PH7.2, 10 mM HEPES, 350 mg/I bicarbonate, 1×B27, 100 IU/ml penicillin, 100 μg/ml streptomycin, 10 μg/ml gentamycin, and 100 μM d-Luciferin) 2 days after cell seeding. 3.5 cm dish was then sealed with high-vacuum grease (Dow Corning) and microscope cover glass, and transferred into lumicycle which was placed in an incubator (37° C.). For Drug treatment, 3.5 cm dish was taken out from lumicycle quickly at indicated time. After chemical was added into the medium, the dish was sealed again and put back into lumicycle. For Circadian Oscillation monitored with Tecan (Perkinelmer), cells were seeded at the density of […] per well for 384-well plate (CLS3610-48EA). 2 days later, the medium was changed into premixed XM medium with different chemicals with or without pentostatin (5 μg/ml). The plate was then sealing with sealing film (Sangon Biotech) and put into Tecan. Data from cells were collected in the Tecan luminometer at 37° C. for 5˜7 days.
The inventors conducted a chemical screen using the human osteosarcoma U2OS cell line so as to discover small molecules that modify the phase of the intracellular clock in mammals. In the primary screen, the inventors used two reporter lines of U2OS harboring a luciferase gene under control of either Per2 or Bmal1 promoter (named Per2-dLuc or Bmal1-dLuc cells), and set the threshold for at least 6 h phase-changes with no apparent amplitude-reduction in both cell lines. […] An institutional pilot chemical library consisting of approximately 10,000 small molecules was applied in this study. […] The inventors set to allow a free-run of the clock before administration of the compound over the course in order to eliminate the possibility that this phase-changing phenomenon was due to a combinative phenotype of medium-change plus the compound effect.
Circadian clock is a transcriptional based feedback loop, however different clock genes contain different cis-element and may show different response to the same stimulation. […] Since the close similar structure with adenosine and potential function of inhibiting transcription by preventing mRNA elongation, we tested whether adenosine and other deoxynucleoside could shift circadian phase. […] Therefore we further tested whether cordycepin utilize adenosine transporter to enter cell or utilize adenosine deaminase to degrade.
One prominent character of zeitgeiber is phase dependent function. Therefore, we further tested whether cordycepin also has the character.

[1] = biological target: T1, Ruvbl2, Bmal1, Cry1 and CDK9 interaction (Homo sapiens, UniProt Q9Y230); assay: Co-immunoprecipitation in transfected HEK293T cells; type: cell-based; details: 100 μM
T1 construct: expressed in transfected cells; host or cells: HEK293T
T1 sequence (Q9Y230 whole entry): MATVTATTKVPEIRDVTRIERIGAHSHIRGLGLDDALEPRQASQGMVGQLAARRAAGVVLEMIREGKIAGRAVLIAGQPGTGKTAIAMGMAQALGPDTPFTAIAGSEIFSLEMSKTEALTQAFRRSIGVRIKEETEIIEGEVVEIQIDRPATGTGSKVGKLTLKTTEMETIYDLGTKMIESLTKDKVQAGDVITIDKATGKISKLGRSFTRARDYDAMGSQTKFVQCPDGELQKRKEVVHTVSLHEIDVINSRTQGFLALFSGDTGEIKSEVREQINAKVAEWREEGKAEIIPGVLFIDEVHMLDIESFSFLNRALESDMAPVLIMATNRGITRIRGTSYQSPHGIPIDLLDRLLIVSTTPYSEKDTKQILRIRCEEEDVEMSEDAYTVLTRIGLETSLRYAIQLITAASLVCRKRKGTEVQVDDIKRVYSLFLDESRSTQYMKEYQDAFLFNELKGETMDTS
Description: Biotinylated Compounds Pull-down, SPR analysis and Immunoprecipitation: The interaction between biotinylated compounds and their target proteins were proceeded as follow. Every 10^8 unsynchronized U2OS cells were collected, homogenized into 2 ml lysis buffer (25 mM MOPS pH7.2, 15 mM EGTA, 15 mM MgCl2, 1 mM DTT, 60 mM β-glycerophosphate, 1 mM Na3VO4, 1 mM NaF, 1 mM phenyl phosphate, Complete Protease Inhibitor Cocktail), and sonicated 6 times for 30 s at 4° C. with a Diagenode bioruptor. After sonication, NP-40 (final 0.5%) was added, incubated 15 min on ice, centrifuged at full speed for 20 min at 4° C. The resultant supernatant was firstly incubated with Pentostatin (final concentration at 5 μg/ml) for 2 h at 4° C. with rotation, and then split into 4 groups. 200 pmol cordycepin, 200 pmol DRB, and DMSO (2 groups, final 0.1%) was added respectively and further incubated for 1 h. […] The eluted protein was analyzed with western blot. The binding affinity of cordycepin against the RUVBL2 protein was measured via SPR technology using a Biacore T200 instrument (GE Healthcare) at room temperature. […] The binding kinetics and binding affinity of cordycepin against the RUVBL2 protein were determined with BIA evaluation software (GE healthcare). […] Immunoprecipitated protein complex was then washed 3 times with IP lysis buffer, boiled and analyzed with western blot. […]

Q: Which results are given for `Nc1ncnc2c1ncn2[C@@H]1O[C@H](CO)C[C@H]1O` [Cordycepin, 3′-deoxy-adenosine]?
A: phase shift (Per2:luc U2OS cells; 100 μM applied at CT10): 12 h; phase shift (Per2:luc U2OS cells; 100 μM applied at CT 20): ~0 h; Per2-dLuc phase shift (Per2:luc U2OS cells; applied at Per2 peak, 100 μM): 12 h; Per2-dLuc phase shift (Per2:luc U2OS cells; applied at Per2 trough): 0 h; amplitude of Per2-dLuc (Per2:luc U2OS cells; applied at Per2 trough): increase the amplitude; interaction between Ruvbl2 and Bmal1, or Cry1 with Bmal1 [1]: can be disassociated; interaction between Ruvbl2 with Cry1 or CDK9 [1]: is not disassociated
